# Data from US20240327353A1.
# Read-outs that look alike come from different tables or passages of the source.
# Legend:
# [1] = target: human wild-type H1R (Homo sapiens, UniProt P35367); assay: IP-One HTRF IP1 accumulation assay; conditions: competitive antagonism of histamine-stimulated IP1 accumulation (10 μM histamine)
# [2] = target: D2L (Homo sapiens, UniProt P14416); assay: Radioligand binding, cell membranes
# Experimental: (§1) Transfections were performed for 48 hours.
# [3] = target: T1, 5-HT1A (Homo sapiens, UniProt P08908); assay: Radioligand binding, cell membranes
# T1 construct: host or cells: HEK293T, transient
# T1 sequence (P08908 1-422): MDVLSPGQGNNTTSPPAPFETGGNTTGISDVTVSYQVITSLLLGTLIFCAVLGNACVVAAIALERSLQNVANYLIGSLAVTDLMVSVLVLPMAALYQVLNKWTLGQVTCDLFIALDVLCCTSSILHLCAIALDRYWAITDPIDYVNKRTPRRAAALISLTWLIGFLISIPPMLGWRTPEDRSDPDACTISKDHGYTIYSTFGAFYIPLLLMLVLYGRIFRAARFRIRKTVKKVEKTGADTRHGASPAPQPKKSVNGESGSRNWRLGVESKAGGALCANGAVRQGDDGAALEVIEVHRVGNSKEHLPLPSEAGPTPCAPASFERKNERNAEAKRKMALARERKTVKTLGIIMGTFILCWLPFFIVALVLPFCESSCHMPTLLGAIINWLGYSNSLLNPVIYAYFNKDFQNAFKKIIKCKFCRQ
# Experimental: as §1
# [4] = target: 5-HT7 (Homo sapiens, UniProt P34969); assay: Radioligand binding, cell membranes
# Experimental: as §1
# [5] = target: D3 (Homo sapiens, UniProt P35462); assay: Radioligand binding, cell membranes
# Experimental: as §1
# [6] = system: male C57BL/6J mice; assay: Locomotor activity, compound alone (open field); type: in vivo; conditions: 3 mg*kg^−1 s.c. (FIG. 3C)
# [7] = target: T2, C322K^6.34 5-HT2AR (Homo sapiens, UniProt P28223, C322K); assay: IP1 accumulation assay, inverse agonism at constitutively activated receptor; type: cell-based
# T2 construct: expressed in transfected cells; host or cells: clonal cells
# Experimental: as §1
# [8] = system: male C57BL/6J mice; assay: (±)-DOI-elicited head twitch response; conditions: for head twitch response elicited by (±)-DOI: 1 mg*kg^−1 (±)-DOI s.c., pretreatment s.c., every dose tested (PIMA, (2S,4R)-2k 0.3 or 3 mg kg^−1, (2R,4R)-3h 3.0 or 5.6 mg kg^−1)
# [9] = target: human wild-type 5-HT2A (Homo sapiens, UniProt P28223); assay: IP-One HTRF IP1 accumulation assay; conditions: antagonism of IP1 accumulation in the presence of 1 μM 5-HT; ± SD
# [10] = target: T3, α1B-adrenergic receptor (Homo sapiens, UniProt P35368)
# T3 sequence (P35368 1-520): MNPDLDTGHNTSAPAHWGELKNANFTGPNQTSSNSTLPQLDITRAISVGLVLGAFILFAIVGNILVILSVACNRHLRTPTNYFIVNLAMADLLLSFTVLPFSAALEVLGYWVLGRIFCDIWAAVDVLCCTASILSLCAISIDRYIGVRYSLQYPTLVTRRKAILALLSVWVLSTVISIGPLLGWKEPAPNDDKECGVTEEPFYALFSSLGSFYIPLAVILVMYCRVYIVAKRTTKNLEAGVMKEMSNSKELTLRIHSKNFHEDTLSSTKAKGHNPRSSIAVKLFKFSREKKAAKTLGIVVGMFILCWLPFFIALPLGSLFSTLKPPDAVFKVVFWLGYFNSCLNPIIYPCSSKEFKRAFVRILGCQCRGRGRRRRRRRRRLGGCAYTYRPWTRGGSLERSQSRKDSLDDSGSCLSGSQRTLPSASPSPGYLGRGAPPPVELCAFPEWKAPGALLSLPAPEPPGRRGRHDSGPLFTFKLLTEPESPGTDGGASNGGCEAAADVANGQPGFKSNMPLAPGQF
# [11] = target: T4, H1R (Homo sapiens, UniProt P35367); assay: Radioligand binding (competitive displacement and saturation), cell membranes
# T4 construct: host or cells: CHO, transient
# Experimental: as §1
# [12] = target: T5, 5-HT2AR (Homo sapiens, UniProt P28223); assay: as above; conditions: displacement of [^3H]ketanserin; mean of n independent experiments, ± SD where n ≥ 5
# T5 construct: host or cells: HEK293, transient
# Experimental: as §1
# [13] = target: T6, S242A^5.46 5-HT2AR (Homo sapiens, UniProt P28223, S242A); assay: IP1 accumulation assay at point-mutated 5-HT2AR; type: cell-based; conditions: in the presence of 1 μM 5-HT; ± SD
# T6 construct: expressed in transfected cells; host or cells: clonal cells
# Experimental: as §1
# [14] = target: T7, F213K^4.63 5-HT2AR (Homo sapiens, UniProt P28223, F213K); assay: IP1 accumulation assay at point-mutated 5-HT2AR; type: cell-based; conditions: in the presence of 1 μM 5-HT; ± SD
# T7 construct: expressed in transfected cells; host or cells: clonal cells
# Experimental: as §1
# [15] = target: T8, G238S^5.42 5-HT2AR (Homo sapiens, UniProt P28223, G238S); assay: IP1 accumulation assay at point-mutated 5-HT2AR; type: cell-based; conditions: in the presence of 1 μM 5-HT; ± SD
# T8 construct: expressed in transfected cells; host or cells: clonal cells
# Experimental: as §1
# [16] = target: T9, V235M^5.39 5-HT2AR (Homo sapiens, UniProt P28223, V235M); assay: IP1 accumulation assay at point-mutated 5-HT2AR; type: cell-based; conditions: in the presence of 1 μM 5-HT; ± SD
# T9 construct: expressed in transfected cells; host or cells: clonal cells
# Experimental: as §1
# [17] = target: T10, I210V^4.60 5-HT2AR (Homo sapiens, UniProt P28223, I210V); assay: IP1 accumulation assay at point-mutated 5-HT2AR; type: cell-based; conditions: in the presence of 1 μM 5-HT; ± SD
# T10 construct: expressed in transfected cells; host or cells: clonal cells
# Experimental: as §1
# [18] = target: T11, α1A-adrenergic receptor (Homo sapiens, UniProt P35348)
# T11 sequence (P35348 1-466): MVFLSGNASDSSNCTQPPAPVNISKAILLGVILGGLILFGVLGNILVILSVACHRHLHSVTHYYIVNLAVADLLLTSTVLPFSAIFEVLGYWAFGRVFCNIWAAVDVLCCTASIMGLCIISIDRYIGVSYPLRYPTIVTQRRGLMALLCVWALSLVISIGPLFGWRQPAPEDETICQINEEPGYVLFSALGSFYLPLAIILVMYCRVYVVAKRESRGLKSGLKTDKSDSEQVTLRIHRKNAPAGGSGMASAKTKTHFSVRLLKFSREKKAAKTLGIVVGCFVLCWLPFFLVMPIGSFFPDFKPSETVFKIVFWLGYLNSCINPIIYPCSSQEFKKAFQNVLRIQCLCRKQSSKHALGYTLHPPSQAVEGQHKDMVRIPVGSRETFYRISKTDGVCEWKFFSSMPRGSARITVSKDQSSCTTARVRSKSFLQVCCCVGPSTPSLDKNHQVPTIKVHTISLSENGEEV
# [19] = target: human wild-type 5-HT2C (Homo sapiens, UniProt P28335); assay: IP-One HTRF IP1 accumulation assay
# [20] = target: T12, W158I^4.56 H1R (Homo sapiens, UniProt P35367, W158I)
# [21] = target: D231F^5.35 5-HT2AR (Homo sapiens, UniProt P28223, D231F); assay: Exploratory saturation radioligand binding at point-mutated 5-HT2AR; conditions: membranes of transfected HEK293 cells (FIGS. 14A-14D)
# [22] = target: T12, W158I^4.56 H1R; remark: listed apart in the source
# [23] = target: T11, α1A-adrenergic receptor; assay: biochemical
# [24] = target: T3, α1B-adrenergic receptor; assay: biochemical
# [25] = system: male C57BL/6J mice; assay: Locomotor activity after (±)-DOI (open field); conditions: pretreatment 0.3 mg*kg^−1 s.c., compared to saline pretreatment (FIG. 3B)
# [26] = target: 5-HT2BR (Homo sapiens, UniProt P41595)
# [27] = target: human wild-type 5-HT2B (Homo sapiens, UniProt P41595); assay: IP-One HTRF IP1 accumulation assay
# [28] = [^3H]5-CT, mean of n independent experiments
# T2 sequence (P28223 whole entry C322K): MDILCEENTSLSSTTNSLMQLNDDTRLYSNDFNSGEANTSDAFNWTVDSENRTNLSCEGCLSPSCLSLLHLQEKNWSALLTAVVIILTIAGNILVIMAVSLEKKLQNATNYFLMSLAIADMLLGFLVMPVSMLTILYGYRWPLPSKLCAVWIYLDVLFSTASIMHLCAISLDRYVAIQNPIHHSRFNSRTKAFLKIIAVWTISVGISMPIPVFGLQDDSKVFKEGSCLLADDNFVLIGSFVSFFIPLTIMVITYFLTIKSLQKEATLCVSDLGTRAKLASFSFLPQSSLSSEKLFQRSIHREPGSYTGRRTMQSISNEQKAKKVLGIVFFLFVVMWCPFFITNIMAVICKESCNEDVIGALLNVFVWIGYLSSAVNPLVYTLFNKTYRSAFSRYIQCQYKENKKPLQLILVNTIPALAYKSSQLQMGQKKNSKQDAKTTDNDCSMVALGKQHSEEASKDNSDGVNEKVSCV
# Chain of D3 (P35462 whole entry): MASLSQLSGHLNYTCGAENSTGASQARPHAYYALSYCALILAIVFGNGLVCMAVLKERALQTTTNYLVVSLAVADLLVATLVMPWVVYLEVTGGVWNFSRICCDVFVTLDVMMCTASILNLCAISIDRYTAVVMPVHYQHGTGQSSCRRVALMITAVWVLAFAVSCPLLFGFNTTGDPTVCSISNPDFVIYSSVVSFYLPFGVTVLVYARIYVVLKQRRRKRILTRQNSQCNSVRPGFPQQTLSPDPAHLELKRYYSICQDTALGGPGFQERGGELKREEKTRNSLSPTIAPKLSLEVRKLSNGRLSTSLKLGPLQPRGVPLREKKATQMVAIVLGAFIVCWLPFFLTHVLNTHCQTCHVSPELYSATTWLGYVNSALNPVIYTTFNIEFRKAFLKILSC
# Chain of 5-HT7 (P34969 1-445 isoform P34969-2): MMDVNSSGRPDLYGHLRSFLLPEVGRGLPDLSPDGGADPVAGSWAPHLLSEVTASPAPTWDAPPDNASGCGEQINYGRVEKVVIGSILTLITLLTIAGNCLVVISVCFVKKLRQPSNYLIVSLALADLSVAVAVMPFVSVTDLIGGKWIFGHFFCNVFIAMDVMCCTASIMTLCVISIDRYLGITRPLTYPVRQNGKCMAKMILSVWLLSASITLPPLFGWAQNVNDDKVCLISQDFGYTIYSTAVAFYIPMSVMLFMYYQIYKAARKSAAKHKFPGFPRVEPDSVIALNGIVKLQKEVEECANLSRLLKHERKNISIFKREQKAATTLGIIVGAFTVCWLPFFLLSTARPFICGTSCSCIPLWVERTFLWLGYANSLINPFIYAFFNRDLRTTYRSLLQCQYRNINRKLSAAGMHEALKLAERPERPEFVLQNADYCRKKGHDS
# Chain of D2L (P14416 whole entry): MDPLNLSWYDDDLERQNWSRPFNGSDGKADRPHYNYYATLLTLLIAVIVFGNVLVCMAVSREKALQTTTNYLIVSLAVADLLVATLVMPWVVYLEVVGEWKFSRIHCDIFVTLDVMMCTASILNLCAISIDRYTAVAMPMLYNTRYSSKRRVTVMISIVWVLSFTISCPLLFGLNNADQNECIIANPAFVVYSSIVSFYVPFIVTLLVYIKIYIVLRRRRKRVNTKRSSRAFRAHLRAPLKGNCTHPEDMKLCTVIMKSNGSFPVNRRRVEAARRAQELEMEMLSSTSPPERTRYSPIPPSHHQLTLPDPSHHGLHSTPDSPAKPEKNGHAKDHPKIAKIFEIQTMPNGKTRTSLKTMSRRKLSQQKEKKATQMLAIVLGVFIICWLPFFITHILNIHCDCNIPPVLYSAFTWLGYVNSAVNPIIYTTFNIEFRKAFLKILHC
# T4 sequence (P35367 whole entry): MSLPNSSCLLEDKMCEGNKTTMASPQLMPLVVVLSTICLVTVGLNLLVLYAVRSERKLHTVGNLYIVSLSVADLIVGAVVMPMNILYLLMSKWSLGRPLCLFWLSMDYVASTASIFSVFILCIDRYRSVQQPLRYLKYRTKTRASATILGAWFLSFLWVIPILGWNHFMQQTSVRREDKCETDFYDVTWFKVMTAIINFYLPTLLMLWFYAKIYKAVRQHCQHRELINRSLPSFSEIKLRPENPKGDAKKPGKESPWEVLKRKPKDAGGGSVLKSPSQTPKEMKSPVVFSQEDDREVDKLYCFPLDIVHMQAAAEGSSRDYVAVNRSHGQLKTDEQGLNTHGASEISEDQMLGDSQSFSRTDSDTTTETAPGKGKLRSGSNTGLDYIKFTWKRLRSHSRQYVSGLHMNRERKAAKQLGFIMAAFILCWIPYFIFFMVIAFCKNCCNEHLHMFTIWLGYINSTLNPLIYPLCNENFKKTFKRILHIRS
# Chain of human wild-type H1R (P35367 whole entry): as above
# T12 sequence (P35367 whole entry W158I): as the sequence (P35367 whole entry) above, with W158I counted along it
# T5 sequence (P28223 whole entry): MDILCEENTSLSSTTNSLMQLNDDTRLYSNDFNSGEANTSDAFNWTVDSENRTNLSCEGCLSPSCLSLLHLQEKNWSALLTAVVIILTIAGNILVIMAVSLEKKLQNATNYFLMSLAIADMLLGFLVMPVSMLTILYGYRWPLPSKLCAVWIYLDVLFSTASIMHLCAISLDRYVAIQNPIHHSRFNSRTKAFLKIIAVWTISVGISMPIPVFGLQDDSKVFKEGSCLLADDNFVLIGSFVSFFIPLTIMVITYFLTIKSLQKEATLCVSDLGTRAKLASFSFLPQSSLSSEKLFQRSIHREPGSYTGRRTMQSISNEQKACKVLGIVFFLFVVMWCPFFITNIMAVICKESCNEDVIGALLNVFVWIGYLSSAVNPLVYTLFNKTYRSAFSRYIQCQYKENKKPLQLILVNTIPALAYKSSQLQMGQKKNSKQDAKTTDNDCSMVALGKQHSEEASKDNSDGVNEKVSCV
# Chain of human wild-type 5-HT2A (P28223 whole entry): as above
# Chain of human wild-type 5-HT2C (P28335 33-458): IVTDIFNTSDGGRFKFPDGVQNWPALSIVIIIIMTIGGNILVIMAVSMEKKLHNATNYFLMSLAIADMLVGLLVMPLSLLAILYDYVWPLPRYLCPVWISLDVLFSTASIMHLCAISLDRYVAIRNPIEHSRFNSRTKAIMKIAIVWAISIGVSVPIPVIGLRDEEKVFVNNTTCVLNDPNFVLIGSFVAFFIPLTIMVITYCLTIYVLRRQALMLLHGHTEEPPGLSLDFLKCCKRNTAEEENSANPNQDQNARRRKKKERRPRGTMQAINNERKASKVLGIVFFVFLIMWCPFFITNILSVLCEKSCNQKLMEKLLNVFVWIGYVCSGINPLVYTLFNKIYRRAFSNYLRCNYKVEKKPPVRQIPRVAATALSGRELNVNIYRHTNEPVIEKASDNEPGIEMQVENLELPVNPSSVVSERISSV
# T7 sequence (P28223 whole entry F213K): as the sequence (P28223 whole entry C322K) above, with F213K, K322C counted along it
# T6 sequence (P28223 whole entry S242A): as the sequence (P28223 whole entry C322K) above, with S242A, K322C counted along it
# Chain of D231F^5.35 5-HT2AR (P28223 whole entry D231F): as the sequence (P28223 whole entry C322K) above, with D231F, K322C counted along it
# T10 sequence (P28223 whole entry I210V): as the sequence (P28223 whole entry C322K) above, with I210V, K322C counted along it
# Chain of human wild-type 5-HT2B (P41595 whole entry): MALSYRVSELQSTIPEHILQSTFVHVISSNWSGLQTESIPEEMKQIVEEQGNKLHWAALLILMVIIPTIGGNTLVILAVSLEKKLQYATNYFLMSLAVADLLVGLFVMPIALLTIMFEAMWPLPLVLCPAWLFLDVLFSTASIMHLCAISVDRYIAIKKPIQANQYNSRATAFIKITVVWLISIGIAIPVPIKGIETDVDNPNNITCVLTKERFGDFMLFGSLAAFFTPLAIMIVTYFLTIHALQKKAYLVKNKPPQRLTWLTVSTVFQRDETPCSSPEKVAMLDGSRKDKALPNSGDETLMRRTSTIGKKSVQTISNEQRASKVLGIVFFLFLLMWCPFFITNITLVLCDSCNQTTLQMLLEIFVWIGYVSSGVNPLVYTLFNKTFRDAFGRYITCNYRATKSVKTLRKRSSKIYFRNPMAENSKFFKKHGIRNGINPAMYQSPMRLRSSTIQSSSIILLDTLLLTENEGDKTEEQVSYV
# Chain of 5-HT2BR (P41595 whole entry): as above
# T9 sequence (P28223 whole entry V235M): as the sequence (P28223 whole entry C322K) above, with V235M, K322C counted along it
# T8 sequence (P28223 whole entry G238S): as the sequence (P28223 whole entry C322K) above, with G238S, K322C counted along it
structure (smiles),measurement,setting,value
"CN(C)[C@@H]1Cc2ccccc2[C@H](c2cccc(-c3cccc(F)c3)c2)C1 (single isomer, unassigned) [(2R,4R)-3h, Cis-4-(3′-fluoro-[1,1′-biphenyl]-3-yl)-N,N-dimethyl-1,2,3,4-tetrahydronaphthalen-2-amine]",pKb at H1Rs,[1],5.82±0.22
same,pKi D2L,"[2]; [^3H]spiperone, mean of n independent experiments",<5.0^(3)
same,pKi 5-HT1A,[3]; [28],<5.0^(3)
same,pKi 5-HT7,[4]; [28],6.29^(4)
same,pKi D3,[5],6.21 ^(3)
same,"locomotor activity, compound administered alone",[6],preserving general locomotor ability
same,inverse agonist efficacy at C322K^6.34 5-HT2ARs (reduction of basal IP1 accumulation),[7],~60%
same,pIC50 inverse agonism at C322K^6.34 5-HT2ARs,[7],6.81±0.39
same,head twitch response elicited by (±)-DOI,[8],significantly attenuated the head twitch response
same,pKb Wild type 5-HT2AR,[9],6.97 ± 0.37
same,Ki,[10],794 nM
same,pKi H1R,[11],7.31 ^(2) 7.39-7.23 8.96^(3) 9.11-8.88 6.20^(2) 6.23-6.18 6.30 ± 0.10^(5) 6.42-6.14
same,pKi 5-HT2AR,[12],9.46 ± 0.34
same,pKb S242A^5.46 5-HT2AR,[13],6.85 ± 0.36
same,pKb F213K^4.63 5-HT2AR,[14],7.04 ± 0.17
same,pKb G238S^5.42 5-HT2AR,[15],4.59 ± 0.48
same,pKb V235M^5.39 5-HT2AR,[16],7.02 ± 0.26
same,pKb I210V^4.60 5-HT2AR,[17],7.18 ± 0.22
same,Ki,[18],741 nM
same,inverse agonist efficacy (Imax) at 5-HT2CRs,[19],exhibits inverse agonism
NCCc1c[nH]cn1 [histamine],IP1 accumulation at W158I^4.56 H1Rs in response to histamine,[20],unable to stimulate IP1 accumulation
[3H]C([3H])(N1CCC(C(=O)c2ccc(F)cc2)CC1)C([3H])([3H])n1c(=O)[nH]c2ccccc2c1=O [[^3H]Ketanserin],specific binding to D231F^5.35 5-HT2ARs,[21],no specific binding is detected
same,specific binding to W158I^4.56 H1Rs,[22],cannot be detected
"CN(C)[C@@H]1Cc2ccccc2[C@@H](c2cccc(Br)c2)C1 (single isomer, unassigned) [(2S,4R)-2a, Trans-4-(3-bromophenyl)-N, N-dimethyl-1,2,3,4-tetrahydronaphthalen-2-amine]",Ki,[23],10.2 nM
same,Ki,[2]; read-out: pKi D2L (converted),69.2 nM
same,Ki,[3]; read-out: pKi 5-HT1A (converted),> 10000 nM
same,Ki,[4]; read-out: pKi 5-HT7 (converted),41.7 nM
same,Ki,[5]; read-out: pKi D3 (converted),120 nM
same,inverse agonist efficacy at C322K^6.34 5-HT2ARs (reduction of basal IP1 accumulation),[7]; below basal,~50%
same,Ki,[24],3240 nM
"CC(C)COc1ccc(CNC(=O)N(Cc2ccc(F)cc2)C2CCN(C)CC2)cc1 [PIMA, pimavanserin, reference compound]",locomotor activity (distance traveled) of mice given 1 mg*kg^−1 DOI,[25],locomotor suppression
same,pKb at H1Rs,[1],"little, if any, antagonism"
same,"locomotor activity, compound administered alone",[6],suppresses locomotor activity
same,"attenuation of head twitch response compared with the same dose of (2S,4R)-2k",[8]; 0.3 mg*kg^−1 s.c.,significantly more effective
same,head twitch response elicited by (±)-DOI,[8],significantly attenuated the head twitch response
same,pKi H1R,"[11]; displacement of [^3H]mepyramine, mean of n independent experiments, ± SD where n ≥ 5",5.50^(2)
same,Ki,[26],437 nM
same,Kb,[27],1380 nM
